The values below come from patent US9796672B2, “Isoindoline compositions and methods for treating neurodegenerative disease” (Cognition Therapeutics, Inc., priority 2014, dated 2017).

One data set concerns the target Sigma-1 receptor. Briefly: Sigma-1 receptor competitive radioligand binding assay. Conditions: read-out: Sigma-1 Receptor Affinity, Ki.
In the next data set the target is Sigma-2 receptor. Briefly: Sigma-2 receptor competitive radioligand binding assay. Further details: species or system rat. Conditions: read-out: Sigma-2 Receptor Affinity, Ki.
A short description of data set [1]: Mouse liver microsome (MLM) stability. Conditions: mouse, microsomes. The format is in vitro ADME. As to the method:
A first pharmacokinetic study was performed in microsomes of mice mouse liver microsomes, MLM) by a commercial contract research organization. The studies were performed according to Obach, R. S et al. (1997) J. Pharmacol. Exp. Ther., 283: 46-58, which is incorporated herein by reference.
A general note: Liver microsomes are a subcellular fraction often used to study metabolism.

The next data set addresses potassium channel hERG (Homo sapiens (Human), UniProt Q12809). The experiment in a line: In vitro toxicity, hERG inhibition. The format is biochemical. A general note: hERG is a cardiac potassium channel; its block is linked to QT prolongation.
Another data set deals with neuronal cultures. Briefly: Functional neuronal phenotype in neuronal cultures. The format is cell-based. Set-up: key: Antagonist: antagonists (block Abeta signaling); Agonist: agonists (block Abeta signaling with U-shaped dose-response curve and toxicity at high doses); Inactive: inactive (no effect in neuronal cultures).
For data set [2], the system named is Abeta oligomer-induced membrane trafficking deficits in primary hippocampal neurons. Briefly: Membrane trafficking/exocytosis (MTT) assay. Particulars: read-out: Membrane Trafficking EC50; compound dosed prior to Abeta oligomer addition.
Description: Primary hippocampal neurons from E18 Sprague-Dawley rat embryos were plated at optimized concentrations in 384 well plates in NB media (Invitrogen). Neurons were maintained in cultures for 3 weeks, with twice weekly feeding of NB media with N2 supplement (Invitrogen).
MTT reagent (3-(4,5-dimethylthizaol-2yl)-2,5diphenyl tetrazolium bromide) (Roche Molecular Biochemicals) was reconstituted in phosphate buffered saline to 5 mg/mL. 10 μL of MTT labeling reagent is added to each well and incubated at 37° C. for 1 h, then imaged. Exocytosis was assessed by automated microscopy and image processing to quantify the amount of endocytosed and exocytosed formazan.
Each assay plate was formatted so that compounds are tested with and without Abeta oligomer on each plate. […] Reduced formazan was first visible in intracellular vesicles. […] The dye precipitated in the aqueous environment of the culture and formed needle-shaped crystals on the surface of the neuron.

Chain of potassium channel hERG (Q12809 whole entry): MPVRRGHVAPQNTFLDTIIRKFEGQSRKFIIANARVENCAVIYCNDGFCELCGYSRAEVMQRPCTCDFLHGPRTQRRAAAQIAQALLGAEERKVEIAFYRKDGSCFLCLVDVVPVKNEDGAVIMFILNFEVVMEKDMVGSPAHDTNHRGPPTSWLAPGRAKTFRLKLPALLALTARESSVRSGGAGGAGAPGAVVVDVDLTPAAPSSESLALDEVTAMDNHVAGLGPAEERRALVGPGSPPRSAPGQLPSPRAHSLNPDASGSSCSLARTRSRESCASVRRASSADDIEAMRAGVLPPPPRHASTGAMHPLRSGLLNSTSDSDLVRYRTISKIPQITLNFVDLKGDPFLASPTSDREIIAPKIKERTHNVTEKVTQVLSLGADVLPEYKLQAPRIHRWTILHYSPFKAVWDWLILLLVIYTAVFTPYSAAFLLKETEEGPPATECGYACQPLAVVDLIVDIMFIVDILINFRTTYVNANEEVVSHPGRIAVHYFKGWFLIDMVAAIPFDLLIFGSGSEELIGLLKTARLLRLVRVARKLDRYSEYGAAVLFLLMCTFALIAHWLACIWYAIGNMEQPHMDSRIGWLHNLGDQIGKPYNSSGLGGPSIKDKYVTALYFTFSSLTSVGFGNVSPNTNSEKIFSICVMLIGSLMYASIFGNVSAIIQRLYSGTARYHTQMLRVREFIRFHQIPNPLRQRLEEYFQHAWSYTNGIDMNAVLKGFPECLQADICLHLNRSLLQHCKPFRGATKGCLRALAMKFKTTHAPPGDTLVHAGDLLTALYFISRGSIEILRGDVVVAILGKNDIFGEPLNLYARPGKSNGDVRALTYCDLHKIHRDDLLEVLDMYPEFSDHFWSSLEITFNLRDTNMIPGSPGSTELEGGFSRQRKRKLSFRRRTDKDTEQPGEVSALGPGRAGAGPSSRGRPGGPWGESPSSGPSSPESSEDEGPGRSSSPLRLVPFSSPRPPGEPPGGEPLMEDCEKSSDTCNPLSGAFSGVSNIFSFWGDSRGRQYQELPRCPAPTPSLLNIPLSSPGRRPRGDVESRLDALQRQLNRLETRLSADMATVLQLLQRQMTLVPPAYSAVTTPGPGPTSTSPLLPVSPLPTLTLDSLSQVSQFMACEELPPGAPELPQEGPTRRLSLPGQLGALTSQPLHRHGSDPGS
Description for Sigma-1 receptor: Radioligand binding assays for Sigma-1 receptors and Sigma-2 receptors were carried out by a commercial contract research organization. For Sigma-1 binding, various concentrations of test compounds from 100 μM to 1 nM were used to displace 8 nM [^3H](+)pentazocine from endogenous receptors on Jurkat cell membranes (Ganapathy M E et al. 1991, J Pharmacol. Exp. Ther. 289:251-260). 10 μM Haloperidol was used to define non-specific binding. […] 10 μM Haloperidol was used to define non-specific binding. Reactions were terminated by rapid filtration through Whatman GF/C filters using a Brandel 12R cell harvester followed by two washes with ice-cold buffer. Radioactivity on the dried filter discs was measured using a liquid scintillation analyzer (Tri-Carb 2900TR; PerkinElmer Life and Analytical Sciences). The displacement curves were plotted and the Ki values of the test ligands for the receptor subtypes were determined using GraphPad Prism (GraphPad Software Inc., San Diego, Calif.). The percentage specific binding was determined by dividing the difference between total bound (disintegrations per minute) and nonspecific bound (disintegrations per minute) by the total bound (disintegrations per minute).
Description for neuronal cultures: Neuronal cultures are treated with various concentrations of sigma compounds for 24 hours and nuclear intensity compared to vehicle is measured.
Description for potassium channel hERG: In vitro toxicity for Test Compounds is tested in a number of standard assays.

Turning to `COc1cc(CCC(C)(C)N2Cc3cccc(C(=O)NCCO)c3C2)ccc1O` [compound 79], the results for the Ki on Sigma-1 receptor and at Sigma-2 receptor were 10000 nM and 460 nM, respectively. For the same compound, the “Mouse liver microsomes, MLM t½” value in data set [1] amounted to 144 min. For the same compound, the IC50 against potassium channel hERG is 11000 nM. In the data set on neuronal cultures, the neuronal phenotype entry is recorded as “Inactive”. In addition, the EC50 in data set [2] stood at 100000 nM.

For the compound `C[C@H](CCc1ccc(O)c(OC(F)(F)F)c1)N1Cc2ccc(F)cc2C1` [compound 31], the Ki at Sigma-1 receptor was 3.7 nM; at Sigma-2 receptor, 58 nM. In data set [1], the “Mouse liver microsomes, MLM t½” value came to 6 min. On potassium channel hERG, this compound showed an IC50 of 1900 nM. The neuronal phenotype result in the data set on neuronal cultures is given as “Antagonist”. For the same compound, the EC50 in data set [2] was less than 250 nM.

Turning to `CC(C)(CCc1ccc(O)c(OC(F)(F)F)c1)N1Cc2ccc(S(C)(=O)=O)cc2C1` [compound 61], the Ki was determined as 33 nM on Sigma-1 receptor and 6.9 nM at Sigma-2 receptor. Besides, the “Mouse liver microsomes, MLM t½” value in data set [1] is on record as 114 min. In addition, it took 790 nM to reach half-maximal inhibition against potassium channel hERG (IC50). For the same compound, the neuronal phenotype result in the data set on neuronal cultures is given as “Antagonist”. The EC50 in data set [2] was less than 20 nM.

`C[C@H](CCc1ccc(F)cc1)N1Cc2cccc(F)c2C1` [compound 21]: the Ki at Sigma-1 receptor amounted to 330 nM; at Sigma-2 receptor, 12 nM. Moreover, the “Mouse liver microsomes, MLM t½” value in data set [1] was determined as 7 min. This compound also registered an IC50 at potassium channel hERG of 15000 nM. Moreover, the neuronal phenotype result in the data set on neuronal cultures was “Inactive”. Also, the EC50 in data set [2] was greater than 20000 nM.

`CC(C)(CCc1ccc(F)cc1)N1Cc2ccc(F)cc2C1` [compound 35]: the Ki was 2.1 nM at Sigma-1 receptor and 3.6 nM on Sigma-2 receptor. Further, in data set [1], the “Mouse liver microsomes, MLM t½” value is 9 min. On potassium channel hERG, this compound registered an IC50 of 130 nM. The neuronal phenotype entry in the data set on neuronal cultures was “Antagonist”. Moreover, the EC50 in data set [2] amounted to 2200 nM.

Take `CC(C)COc1cc(CCC(C)(C)N2Cc3cccc(F)c3C2)ccc1O` [compound 88]: the Ki was determined as 96 nM on Sigma-1 receptor and 1.3 nM at Sigma-2 receptor. In addition, the “Mouse liver microsomes, MLM t½” value in data set [1] was determined as 28 min. At potassium channel hERG, this compound came in with an IC50 of 2800 nM. For the same compound, the neuronal phenotype result in the data set on neuronal cultures is given as “Neuroactive”. In addition, the EC50 in data set [2] was found to be 360 nM.

For `COc1cc2c(cc1OC)CN([C@H](C)CCc1ccc(Cl)c(Cl)c1)C2` [compound 11], the Ki at Sigma-1 receptor stood at 14 nM; on Sigma-2 receptor, 0.44 nM. Besides, in data set [1], the “Mouse liver microsomes, MLM t½” value is recorded as 61 min. For the same compound, the IC50 against potassium channel hERG was found to be 290 nM. Further, the neuronal phenotype result in the data set on neuronal cultures is given as “Antagonist”. Besides, in data set [2], the EC50 was found to be 700 nM.

Consider `CC(C)Oc1cc(CC[C@@H](C)N2Cc3cc4c(cc3C2)OCO4)ccc1O` [compound 25], for which the Ki came to 5.7 nM at Sigma-1 receptor and 110 nM at Sigma-2 receptor. In addition, the “Mouse liver microsomes, MLM t½” value in data set [1] is recorded as 4 min. This compound also showed an IC50 against potassium channel hERG of 3200 nM. Also, the neuronal phenotype result in the data set on neuronal cultures was “Inactive/”. The EC50 in data set [2] is greater than 20000 nM.

Consider `C[C@H](CCc1ccc(O)c(OC(F)(F)F)c1)N1Cc2cc3c(cc2C1)OCO3` [compound 24], for which the Ki was 4.9 nM at Sigma-1 receptor and 52 nM on Sigma-2 receptor. For the same compound, the “Mouse liver microsomes, MLM t½” value in data set [1] was determined as 5 min. For the same compound, half-maximal inhibition at potassium channel hERG (IC50) was put at 860 nM. In the data set with neuronal cultures, the neuronal phenotype entry is “Antagonist”. The EC50 in data set [2] was 500 nM.

Turning to `CC(C)Oc1ccc(CCC(C)(C)N2Cc3ccc(F)cc3C2)cc1OC(C)C` [compound 42], the Ki turned out to be 100 nM on Sigma-1 receptor and 6.2 nM at Sigma-2 receptor. For the same compound, the “Mouse liver microsomes, MLM t½” value in data set [1] was 14 min. The compound further showed an IC50 against potassium channel hERG of 800 nM. The neuronal phenotype result in the data set with neuronal cultures was “Agonist”. In addition, the EC50 in data set [2] is greater than 20000 nM.

With `C[C@H](CCc1ccc(Cl)c(Cl)c1)N1Cc2cccc(F)c2C1` [compound 9], the figures for the inhibition constant (Ki) on Sigma-1 receptor and on Sigma-2 receptor were 17 nM and 3.6 nM, respectively. Moreover, the “Mouse liver microsomes, MLM t½” value in data set [1] is reported as 12 min. The IC50 against potassium channel hERG is 6700 nM. In the data set on neuronal cultures, the neuronal phenotype result is listed as “Antagonist”. Also, the EC50 in data set [2] worked out at 220 nM.

Usually Ki stands for the equilibrium dissociation constant of an inhibitor or competing ligand from its target. Usually IC50 stands for the point on the concentration scale where inhibition reaches its midpoint. The term EC50 denotes the concentration giving half of the maximal effect.
